{"source": "patent US10093656B2", "about": "“Fused-ring or tricyclic aryl pyrimidine compound used as kinase inhibitor” (NANJING SANHOME PHARMACEUTICAL CO., LTD, priority 2015, dated 2018)", "design_in_all_cases": "species or system BALB/c nude mice", "key": {"[1]": {"system": "NCI-H1975 lung cancer patient-derived xenograft (CDX)", "assay": "Pharmacodynamics study in vivo, NCI-H1975 xenograft (CDX) model", "conditions": "AZD9291 5 mg/kg", "experimental": "(§1) For example, after 21 days of administration, the tumor volume of the representative compounds 30, 33, 34, 40, 42 and 43 decreased from the beginning of about 149 mm^3 to 3-39 mm^3.\n(§2) The pharmacological experiments in vivo were performed on BALB/c nude mice that subcutaneously implanted NCI-H1975 lung cancer […] xenograft (CDX).\n(§3) BALB/c nude mice, female, 6-8 weeks, weighted about 18-22 grams, the mice were kept in a special pathogen-free environment, and in a single ventilation cage (5 mice per cage). The bedding and water of all the cages were disinfected before use. All animals were free to obtain standard certified commercial laboratory diets. A total of 100 mice were purchased from Beijing Vital for research. The tumor tissue (20-30 mm^3) was implanted subcutaneously in the […] of each mouse for tumor growth. The experiment was started when the average tumor volume reached about 150-200 mm^3. The test compound was orally administered daily (compound 30 was administered at 10 mg/kg, compound 33, 34, 40, 42 and 43 were administered at 20 mg/kg and compound AZD9291 was administered continuously for 21 days at 5 mg/kg, the data were shown in Table 3). The tumor volume was measured twice a week with a two-dimensional caliper and the volume was measured in cubic millimeters and calculated by the following formula: V=V=0.5 a×b2, where a and b were the major and minor diameters of the tumor, respectively."}, "[2]": {"system": "NCI-H1975 lung cancer xenograft (CDX)", "assay": "Pharmacodynamics study in vivo, NCI-H1975 xenograft (CDX) model", "conditions": "day 0, oral daily: compound 30 10 mg/kg, 33, 34, 40, 42, 43 20 mg/kg, AZD9291 5 mg/kg", "experimental": "as §1, §2, §3"}, "[3]": {"system": "human skin squamous cell A431 xenograft (CDX)", "assay": "Selectivity study in vivo, A431 xenograft (CDX) model", "conditions": "Table 5 experiment, AZD9291 5 mg/kg", "experimental": "In this model, the less inhibitory effect on the tumor, the better the selectivity in vivo.\nThe selective experiments in vivo were performed on BALB/c nude mice that subcutaneously implanted human skin squamous cell A431 xenograft (CDX).\nBALB/c nude mice, female, 6-8 weeks, weighted about 18-20 grams, the mice were kept in a special pathogen-free environment and in a single ventilation cage (5 mice per cage). The bedding and water of all the cages were disinfected before use. All animals were free to obtain standard certified commercial laboratory diets. All mice were purchased from mice of Shanghai BK Laboratory Animal Co., LTD for research. The tumor tissue (20-30 mm^3) was implanted subcutaneously in the […] of each mouse for tumor growth. The experiment was started when the average tumor volume reached about 150-200 mm^3. The test compound was orally administered (compounds 17, 30, 37 and 38 were administered once daily at 20 mg/kg, the compound AZD9291 was administered once daily at 5 mg/kg, the compound CO-1686 was administered twice daily at 50 mg/kg, the compound Erlotinib was administered once daily at 75 mg/kg and the compound Afatinib was administered once daily at 7.5 mg/kg, 21 days of continuous administration. The data were shown in Table 4; compounds 33, 34, 40, 42 and 43 were administered once daily at 20 mg/kg and compound AZD9291 was administered once daily at5 mg/kg, 21 days of continuous administration. The tumor volume was measured twice a week with a two-dimensional caliper and the volume was measured in cubic millimeters and calculated by the following formula: V=V=0.5 a×b2, where a and b were the major and minor diameters of the tumor, respectively."}}, "data": [{"smiles": "C=CC(=O)Nc1cc(Nc2nccc(-c3cn(C)c4ccccc34)n2)c(OC)cc1N(C)CCN(C)C", "note": "[AZD9291, reference compound]", "values": [{"measurement": "Tumor Volume (mm^3) 4 days", "setting": "[1]; day 4, oral daily: compound 30 10 mg/kg, 33, 34, 40, 42, 43 20 mg/kg", "value": 86, "unit": "mm^3"}, {"measurement": "Tumor Volume (mm^3) 7 days", "setting": "[1]; day 7, oral daily: compound 30 10 mg/kg, 33, 34, 40, 42, 43 20 mg/kg", "value": 64, "unit": "mm^3"}, {"measurement": "Tumor Volume (mm^3) 11 days", "setting": "[1]; day 11, oral daily: compound 30 10 mg/kg, 33, 34, 40, 42, 43 20 mg/kg", "value": 52, "unit": "mm^3"}, {"measurement": "Tumor Volume (mm^3) 14 days", "setting": "[1]; day 14, oral daily: compound 30 10 mg/kg, 33, 34, 40, 42, 43 20 mg/kg", "value": 66, "unit": "mm^3"}, {"measurement": "Tumor Volume (mm^3) 18 days", "setting": "[1]; day 18, oral daily: compound 30 10 mg/kg, 33, 34, 40, 42, 43 20 mg/kg", "value": 25, "unit": "mm^3"}, {"measurement": "Tumor Volume (mm^3) 21 days", "setting": "[1]; day 21, oral daily: compound 30 10 mg/kg, 33, 34, 40, 42, 43 20 mg/kg", "value": 15, "unit": "mm^3"}, {"measurement": "Tumor Volume (mm^3) 0 day", "setting": "[2]", "value": 149, "unit": "mm^3"}, {"measurement": "Tumor Volume (mm^3) 4 days", "setting": "[3]; day 4, oral once daily: 33, 34, 40, 42, 43 20 mg/kg", "value": 153, "unit": "mm^3"}, {"measurement": "Tumor Volume (mm^3) 11 days", "setting": "[3]; day 11, oral once daily: 33, 34, 40, 42, 43 20 mg/kg", "value": 219, "unit": "mm^3"}, {"measurement": "Tumor Volume (mm^3) 18 days", "setting": "[3]; day 18, oral once daily: 33, 34, 40, 42, 43 20 mg/kg", "value": 330, "unit": "mm^3"}]}]}
